Reference: US4231923A, “Assay method and compounds” (Burroughs Wellcome Co., priority 1977, dated 1980)

Biological target: Opiate receptor
Test: Opiate receptor binding (IC50) by the method of Pasternak et al. using tritiated naloxone, absence of sodium ions
Conditions: method indicated in Example 1 (tritiated naloxone, absence of sodium ions, 4° C., pH 7.4); Table 2
Experimental: *Method of Pasternak, G. W. et al., Molecular Pharmacology, 11, 340-351
(1975) using tritiated naloxone and in the absence of sodium ions; assays
trishydrochloric acid buffer (50 mM, pH 7.4).
(§1) The opiate receptor IC50 (M) was ascertained by the method indicated in Example 1.
as §1

H.Try.Gly.Gly.Phe.D-Met.OMe HCl [(Y)]
IC50: 60 nM
